Experimental data from US20210346312A1, “Flat Product for Microbiological Sanitation of the Urogenital Tract” (Tecuro Medical GmbH, priority 2018, published 2021).

Test system: Reconstituted human 3D EpiVaginal models
Assay: Cytotoxicity test (MTT assay, based on DIN ISO 10993-5)
Assay type: cell-based
Conditions: positive control, 1%, typical value
Protocol: To determine the compatibility of a planar product for treatment of the urogenital tract, the Cytotoxicity Test described below can be used. It is based on the standard DIN ISO 10993-5.
Reconstituted human 3D EpiVaginal models (e.g., MatTek) are used. To this end, an element of 6 mm in diameter from a planar product according to the invention is topically applied to the 3D EpiVaginal skin models and incubated on the models for 3 and 18 hours. Skin models treated with sterile water are used as negative control, and skin models treated with the […] surfactant Triton X-100 (1%) are used as positive control. The vitality of the skin models is evaluated in the MTT assay (3-(4,5-dimethylthiazol-2-yl)-2,5-diphenyltetrazolium bromide) (see Stockert et al. Acta Histochemica 120: 159-167 (2018), doi: 10.1016/j.acthis.2018.02.005; Chacon et al. In Vitro Methods in Pharmaceutical Research, ISBN 9780080534602 and https://en.wikipedia.org/wiki/MTT_assay). This involves setting the vitality value of the negative control to 100%. […] According to the invention, what is considered to be an acceptable value is typically a vitality of >80% after 18 h.

Substance: Triton X-100
- vitality after 3 h of incubation (3 h): 25%
- vitality after 18 h (18 h): less than 10%
